Assay: Measurement of calcium-chelating constant (Ca2+ ion electrode, pH 10 buffer)
Format: physicochemical
Conditions: 0.1 mol/L NH4Cl-NH4OH buffer pH 10; 1:1 chelate complex assumed
Experimental: As used herein, the “calcium-chelating constant” refers a value determined by the following method. A solution of 0.1 mol/L NH4Cl-NH4OH (pH 10) is prepared as a buffer. The buffer is used for preparing all sample solutions. To measure a concentration of Ca^2+, an ion meter, Orion […], and a Ca^2+ ion electrode are used. First, a relationship between calcium chloride concentration and potential of the electrode is determined to generate a calibration curve. […] A concentration of remaining Ca^2+ is measured using the Ca^2+ ion electrode. […] [formula] [M]total: initial Ca^2+ concentration [L]total: initial chelating agent concentration [M]: remaining Ca^2+ concentration

| calcium-chelating constant | SMILES |
| --- | --- |
| 12 | O=C(O)CN(CCN(CC(=O)O)CC(=O)O)CC(=O)O [EDTA, ethylenediaminetetraacetic acid] |
| 3 | O=C(O)CC(O)(CC(=O)O)C(=O)O [citric acid] |
